# From publication PMC6026870, “Selective induction of cancer cell death by VDAC1‐based peptides and their potential use in cancer therapy” (Molecular Oncology, 2018)
# Several values for one entry are separate records, joined by “and”; a condition that tells them apart may be missing. Identical values can stand only once.
# Legend:
# [1] = test system: A549‐, MDA‐MB‐231‐, and U‐87MG‐derived tumors; assay: qPCR of excised xenograft tumors; format: in vivo, mouse
# Protocol: (§1) U‐87MG cells (3 × 10^6/mouse), A549 cells (5 × 10^6/mouse), or MDA‐MB‐231 cells (3 × 10^6/mouse) were inoculated subcutaneously (s.c.) into the hind leg flanks of athymic 8‐week‐old male nude mice (Envigo, Huntingdon, UK). Tumor size was measured using a digital caliper and volume was calculated, and when reached 50–100 mm^3 for each tumor type, mice were randomly divided into two groups (five mice per group). […] The xenografts were injected (two points, 20 μL per tumor) every two days. Beginning on the day of inoculation, mouse weight and tumor volume were monitored twice a week. Experiments were terminated after 14, 29, or 20 days for U‐87MG‐, MDA‐MB‐231‐, or A549‐based tumors, respectively. The mice were sacrificed and tumors were excised. Half of each tumor was fixed in 4% buffered formaldehyde, paraffin‐embedded, and processed for IHC, while the second half was frozen in liquid nitrogen for immunoblotting and qPCR analyses. These experimental protocols were approved by the Institutional Animal Care and Use Committee of Ben‐Gurion University.
# Total RNA was isolated from untreated and peptide‐treated tumors (three mice each) using an RNeasy Mini Kit (Qiagen, Hilden, Germany) according to the manufacturer's instructions. Total RNA quality was analyzed using the Agilent RNA 6000 Nano Kit. […] The levels of target genes were normalized relative to β‐actin mRNA levels. Samples were amplified by a 7300 Real‐Time PCR System (Applied Biosystems) for denaturation step of 5 min at 95 °C and 40 cycles using the following PCR parameters: 95 °C for 15 s, 60 °C for 1 min, and 72 °C for 1 min. The copy numbers for each sample were calculated by the CT‐based calibrated standard curve method. The mean fold changes (±SE) of three replicates were calculated.
# HeLa cells = assay: Cellular ATP levels, luciferase‐based assay (CellTiter‐Glo); format: cell-based, human; details: 3 h, percentage of control, mean ± SE (n = 3) (Fig. 4F)
# Protocol: Cellular ATP levels were estimated using a luciferase‐based assay (CellTiter‐Glo; Promega). […] ATP levels were assayed according to the manufacturer's protocol, and luminescence was recorded using an Infinite M1000 plate reader (Tecan, Männedorf, Switzerland).
# [2] = test system: MDA‐MB‐231 cell xenograft; assay: Subcutaneous xenograft mouse model, tumor growth; format: in vivo; details: MDA‐MB‐231 s.c. xenograft, nude mice; intratumoral 40 or 60 μM, 20 μL per tumor every two days; 29 days; vs HBSS control; n = 5
# Protocol: as §1
# U‐87MG cell xenograft = assay: Subcutaneous xenograft mouse model, tumor growth; format: in vivo; details: U‐87MG s.c. xenograft, nude mice; intratumoral 40 or 60 μM, 20 μL per tumor every two days; 14 days; vs HBSS control; n = 5
# Protocol: as §1
# A549 cell xenograft = assay: Subcutaneous xenograft mouse model, tumor growth; format: in vivo; details: A549 s.c. xenograft, nude mice; intratumoral 40 or 60 μM, 20 μL per tumor every two days; 20 days; vs HBSS control; n = 5
# Protocol: as §1
# [3] = treated tumors vs control, n = 3 (Fig. 7D,E)
compound,measurement,setting,value
CC[C@H](C)[C@H](NC(=O)[C@H](Cc1ccc(O)cc1)NC(=O)[C@@H]1CCCN1C(=O)[C@H](CCCNC(=N)N)NC(=O)[C@H](Cc1c[nH]cn1)NC(=O)[C@@H](CO)NC(=O)[C@@H](Cc1c[nH]c2ccccc12)NC(=O)[C@H](NC(=O)[C@@H](Cc1c[nH]c2ccccc12)NC(=O)[C@@H](CCC(=O)O)NC(=O)[C@@H](CCCCN)NC(=O)[C@@H](CCCCN)NC(=O)[C@@H](CC(C)C)NC(=O)[C@@H](CCC(=O)O)NC(=O)[C@H](NC(=O)[C@@H](C)NC(=O)[C@H](NC(=O)[C@@H](CC(N)=O)NC(=O)[C@@H](CC(C)C)NC(=O)[C@@H](C)NC(=O)[C@@H](Cc1c[nH]c2ccccc12)NC(=O)[C@H](NC(=O)[C@@H](C)NC(=O)CNC(=O)[C@@H](CC(N)=O)NC(=O)[C@@H](CO)NC(=O)[C@@H](CC(N)=O)NC(=O)[C@@H](CCCCN)NC(=O)[C@@H](Cc1c[nH]c2ccccc12)NC(=O)[C@H](NC(=O)[C@@H](Cc1c[nH]c2ccccc12)NC(=O)[C@H](N)CCCCN)[C@H](C)O)[C@H](C)O)C(C)C)[C@H](C)O)[C@H](C)O)C(=O)N[C@@H](C)C(=O)N[C@@H](Cc1c[nH]cn1)C(=O)O [R‐Tf‐D‐LP4],"decrease in expression of Glut‐1, HK‐I and GAPDH","[1]; A549, MDA‐MB‐231, U‐87MG tumors vs control (Fig. 8)",three‐ to fourfold
same,"p53 expression levels, elevation","[1]; A549‐, MDA‐MB‐231‐, U‐87MG‐derived tumors, n = 3 (Fig. 7D–F)",over two‐ to fivefold
same,Caspase‐8 overexpression,[1]; [3],two‐ to threefold
same,"SMAC/Diablo expression levels, increase",[1]; [3],two‐ to fivefold
same,caspase‐3 overexpression,[1]; [3],two‐ to threefold
same,"Cyto c expression, increase","[1]; treated tumors vs control, n = 3 (Fig. 7D,F)",two‐ to fourfold
same,decrease of cellular ATP levels,HeLa cells,about 40%
same,decrease in tumor volume,[2],~ 80% and 70–80%
same,decrease in tumor volume,U‐87MG cell xenograft,~ 80% and 70–80%
same,decrease in tumor volume,A549 cell xenograft,~ 80% and 70–80%
